Test results taken from patent US5321016A, “Use of certain substituted α-amino acids in treating stress-related psychiatric disorders” (Sandoz Pharmaceuticals Corp., priority 1986, dated 1994).

How the values were obtained:
[1] = test system: NMDA (N-Methyl-D-aspartic acid) receptors; assay: inhibition of NMDA-induced depolarizations of the isolated amphibian spinal cord (competitive antagonism); assay type: cell-based, toad or frog; details: at 5 μM
Source text: The compounds of the invention further interact with excitatory amino acid systems, in particular they are competitive antagonists of NMDA (N-Methyl-D-aspartic acid) receptors, as indicated by an inhibitory effect on NMDA-induced depolarizations of the isolated amphibian spinal cord. This may be shown in the test performed in conventional manner (see for example D. R. Curtis et al., J. Physiol. (London) 150, 656-682 (1961) and R. H. Evans et al., Br. J. Pharmac. 67, 591-603 (1979) as follows:
A hemisected proximal part of the spinal cord of a toad or frog lies in a recording chamber being perfused by a Ringer solution (111 mM NaCl, 2 mM KCl, 2 mM CaCl2, 12 mM Glucose, Tris-buffer (pH 7.5, 10 mM). The dorsal root is pulled into the stimulating chambers, the ventral root into the recording chambers. A stimulator connected to the stimulating chambers is used. A DC high impedance preamplifier measures the DC potential between the ground lead sampling the main chamber and one of the recording chambers. The signal from the pre-amplifier is monitored on a CRO to display stimulated synaptic activity (dorsal root--ventral root potential, DR--VRP) or to a chart recorder to display slow changes in potential. […]
Antagonists are tested in two stages. […] In such cases pA2 values are calculated according to the formula […]

[2] = test system: electroshock-induced convulsions; assay: inhibition of electroshock-induced convulsions in the mouse; assay type: in vivo, mouse (OF-1); details: ip, 1 h, i.p., 60 minutes before shock, read-out: EDmin in the electroshock-induced convulsion test
Method: E. Swinyard, J. Am. Pharm. Assoc. Scient. Ed. 38, 201 (1949) and J. Pharmacol. Exptl. Therap. 106, 319 (1952)]. In this test groups of 3 mice (18-26 g, OF-1, Sandoz Basle) receive the test substance in a dosage of 3.2-100 mg/kg i.p. After 60 minutes a 50 mA, 200 ms long shock is applied with corneal electrodes smeared with electrolyte jelly. This supra-threshold shock produces tonic extensor convulsions of all extremities. Inhibition of the hindlimb extension is taken as a protective action. After investigation of several dose-levels an EDmin is estimated.

plasma corticosterone = assay: inhibition of plasma corticosterone rise induced by social stress in mice; assay type: in vivo, mouse (male, OF-1); details: 0.3 to 3 mg/kg p.o.
Method: This can be shown in the following test:
One day before the experiment a group of 5 male mice (40-50 g, OF-1, Sandoz,Basle) were placed in a transparent makrolon cage Typ 3, which is cut in halves by a grid. The next day each mouse was given an oral dose of 0.3-30 mg/kg of a compound of the invention, Two hours later an isolated male mouse was introduced for 15 minutes into the empty half of the cage and two trained observers recorded the behaviour of the mice in terms of acts such as dig, push-dig and rattle. Blood plasma samples were then taken from the tested mice group and assayed for corticosterone concentrations using a modified method of Paerson-Murphy B. E., J. Clin. Endocrinology 27 (1967) 973-990. The procedure was repeated with a control group of 5 mice which was given only a solvent.

Structure (SMILES) | pA2 as NMDA receptor inhibitor [1] | minimal effective dose [2] [mg/kg] | inhibition of the rise of plasma-corticosterone (social stress) (plasma corticosterone)
NC(Cc1cc(CP(=O)(O)O)cc(-c2ccc(Cl)cc2)c1)C(=O)O (racemic) [Example 1, (±)-α-Amino-3-(4'-chloro-5-phosphonomethyl-[1.1'-biphenyl]-3-yl)propanoic acid] | 7.3 | < 50 | 
NC(Cc1cc(CP(=O)(O)O)cc(-c2ccccc2)c1)C(=O)O (single isomer, unassigned) [Example 16, (+)-α-Amino-3-(5-phosphonomethyl-[1.1'-biphenyl]-3-yl) propanoic acid] |  |  | inhibits significantly
